Experimental data taken from publication PMC11311138, “Design of Promising Thiazoloindazole-Based Acetylcholinesterase Inhibitors Guided by Molecular Docking and Experimental Insights” (ACS Chemical Neuroscience, 2024).

Assays:
[1] = target: Electrophorus electricus AChE (eeAChE) (Electrophorus electricus, UniProt O42275); assay: biochemical; assay type: biochemical; settings: pH 8, 37 °C, triplicate
equine serum BuChE = equine serum BuChE (Equus caballus, UniProt P81908); assay: biochemical; settings: pH 8, 37 °C, triplicate
Sequence of equine serum BuChE (P81908 whole entry): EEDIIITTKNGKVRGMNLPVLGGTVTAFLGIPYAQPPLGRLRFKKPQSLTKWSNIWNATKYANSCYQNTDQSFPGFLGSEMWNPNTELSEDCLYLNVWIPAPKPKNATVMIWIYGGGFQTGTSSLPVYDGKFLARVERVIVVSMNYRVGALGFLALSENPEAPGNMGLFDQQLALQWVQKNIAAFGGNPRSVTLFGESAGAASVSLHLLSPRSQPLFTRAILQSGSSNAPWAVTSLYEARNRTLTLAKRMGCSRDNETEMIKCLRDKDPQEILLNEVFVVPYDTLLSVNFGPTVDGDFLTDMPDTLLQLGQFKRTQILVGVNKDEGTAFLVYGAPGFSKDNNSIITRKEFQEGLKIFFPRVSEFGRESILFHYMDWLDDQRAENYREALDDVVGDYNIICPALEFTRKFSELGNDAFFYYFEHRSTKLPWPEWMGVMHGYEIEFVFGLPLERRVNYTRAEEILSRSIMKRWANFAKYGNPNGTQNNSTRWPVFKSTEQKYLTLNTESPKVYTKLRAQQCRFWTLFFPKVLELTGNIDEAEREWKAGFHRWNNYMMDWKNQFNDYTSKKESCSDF

Sequence of Electrophorus electricus AChE (eeAChE) (O42275 24-633): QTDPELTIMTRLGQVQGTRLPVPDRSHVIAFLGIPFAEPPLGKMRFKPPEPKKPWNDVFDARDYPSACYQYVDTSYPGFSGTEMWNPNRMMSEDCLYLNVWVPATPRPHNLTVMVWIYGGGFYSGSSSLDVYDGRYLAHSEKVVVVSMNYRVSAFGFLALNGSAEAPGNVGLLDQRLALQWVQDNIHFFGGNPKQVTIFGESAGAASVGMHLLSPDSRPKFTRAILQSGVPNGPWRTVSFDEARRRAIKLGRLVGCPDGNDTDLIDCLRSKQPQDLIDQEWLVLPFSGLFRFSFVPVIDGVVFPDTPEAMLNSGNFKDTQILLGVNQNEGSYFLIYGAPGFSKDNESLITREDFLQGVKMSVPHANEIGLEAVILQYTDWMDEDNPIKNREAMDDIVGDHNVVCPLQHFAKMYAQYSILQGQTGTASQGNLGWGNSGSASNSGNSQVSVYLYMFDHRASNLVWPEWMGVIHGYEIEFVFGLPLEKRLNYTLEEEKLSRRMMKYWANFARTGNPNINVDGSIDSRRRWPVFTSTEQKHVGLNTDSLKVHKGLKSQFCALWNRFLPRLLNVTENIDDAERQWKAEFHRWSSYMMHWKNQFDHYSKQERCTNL

| SMILES | IC50 [1] [µM] | IC50 (equine serum BuChE) [µM] | AChE IC50 [1] |
| --- | --- | --- | --- |
| Cn1ncc2c3sc(N)nc3ccc21 [5a, 6-Methyl-6H-thiazolo[5,4-e]indazol-2-amine] | > 50 | > 50 |  |
| CCn1ncc2c3sc(N)nc3ccc21 [5b, 6-Ethyl-6H-thiazolo[5,4-e]indazol-2-amine] | > 50 | > 50 |  |
| Cn1ncc2ccc3nc(N)sc3c21 [5c, 1-Methyl-1H-thiazolo[4,5-g]indazol-7-amine] | > 50 | > 50 |  |
| CCn1ncc2ccc3nc(N)sc3c21 [5d, 1-Ethyl-1H-thiazolo[4,5-g]indazol-7-amine] | > 50 | > 50 |  |
| Cn1nc(Cl)c2c3sc(N)nc3ccc21 [5e, 8-Chloro-6-methyl-6H-thiazolo[5,4-e]indazol-2-amine] | > 50 | > 50 |  |
| Cn1ncc2c3sc(NC(=O)CCl)nc3ccc21 [6a, 2-Chloro-N-(6-methyl-6H-thiazolo[5,4-e]indazol-2-yl)acetamide] | 14.3 ± 2.62 | > 50 |  |
| CCn1ncc2c3sc(NC(=O)CCl)nc3ccc21 [6b, 2-Chloro-N-(6-ethyl-6H-thiazolo[5,4-e]indazol-2-yl)acetamide] | 13.2 ± 2.71 | > 50 |  |
| Cn1nc(Cl)c2c3sc(NC(=O)CCl)nc3ccc21 [6c, 2-Chloro-N-(8-chloro-6-methyl-6H-thiazolo[5,4-e]indazol-2-yl)acetamide] | > 25 | > 50 |  |
| Cn1ncc2c3sc(NC(=O)CN=[N+]=[N-])nc3ccc21 [7a, 2-Azido-N-(6-methyl-6H-thiazolo[5,4-e]indazol-2-yl)acetamide] | > 50 | > 50 |  |
| CCn1ncc2c3sc(NC(=O)CN=[N+]=[N-])nc3ccc21 [7b, 2-Azido-N-(6-ethyl-6H-thiazolo[5,4-e]indazol-2-yl)acetamide] | 0.54 ± 0.11 | > 50 |  |
| Cn1nc(Cl)c2c3sc(NC(=O)CN=[N+]=[N-])nc3ccc21 [7c, 2-Azido-N-(8-chloro-6-methyl-6H-thiazolo[5,4-e]indazol-2-yl)acetamide] | 2.26 ± 0.09 | > 50 |  |
| Cn1ncc2c3sc(NC(=O)Cn4cc(-c5cc(C(F)(F)F)cc(C(F)(F)F)c5)nn4)nc3ccc21 [TI45a, 2-(4-(3,5-bis(Trifluoromethyl)phenyl)-1H-1,2,3-triazol-1-yl)-N-(6-methyl-6H-thiazolo[5,4-e]indazol-2-yl)acetamide] | > 50 | > 50 |  |
| CCn1ncc2c3sc(NC(=O)Cn4cc(-c5cc(C(F)(F)F)cc(C(F)(F)F)c5)nn4)nc3ccc21 [TI45b, 2-(4-(3,5-bis(Trifluoromethyl)phenyl)-1H-1,2,3-triazol-1-yl)-N-(6-ethyl-6H-thiazolo[5,4-e]indazol-2-yl)acetamide] | 0.071 ± 0.014 | > 50 |  |
| Cn1nc(Cl)c2c3sc(NC(=O)Cn4cc(-c5cc(C(F)(F)F)cc(C(F)(F)F)c5)nn4)nc3ccc21 [TI45c, 2-(4-(3,5-bis(Trifluoromethyl)phenyl)-1H-1,2,3-triazol-1-yl)-N-(8-chloro-6-methyl-6H-thiazolo[5,4-e]indazol-2-yl)acetamide] | > 50 | > 50 |  |
| Cn1ncc2c3sc(NC(=O)Cn4c5ccccc5c5ccccc54)nc3ccc21 [TI58a, 2-(9H-carbazol-9-yl)-N-(6-methyl-6H-thiazolo[5,4-e]indazol-2-yl)acetamide] | > 50 | > 50 |  |
| CCn1ncc2c3sc(NC(=O)Cn4c5ccccc5c5ccccc54)nc3ccc21 [TI58b, 2-(9H-carbazol-9-yl)-N-(6-ethyl-6H-thiazolo[5,4-e]indazol-2-yl)acetamide] | > 50 | > 50 | did not experimentally show any activity against AChE |
| Cn1nc(Cl)c2c3sc(NC(=O)Cn4c5ccccc5c5ccccc54)nc3ccc21 [TI58c, 2-(9H-carbazol-9-yl)-N-(8-chloro-6-methyl-6H-thiazolo[5,4-e]indazol-2-yl)acetamide] | > 50 | > 50 |  |
